Converted amounts (≈) assume the structure as drawn. Structures can show the parent of a compound that is named as a salt.
Tests used:
[1] = system: Human immunodeficiency virus 1; assay: Antiviral activity against HIV1 NL4-3; assay type: functional; conditions: Human immunodeficiency virus 1, NL4-3
[2] = system: Human immunodeficiency virus 1; assay: Antiviral activity against wild-type HIV1 3B infected in human MT4 cells assessed as protection against virus-induced cytopathic effect measured at 5 days post infection by MTT assay; assay type: functional, cell-based; conditions: Human immunodeficiency virus 1, 3B, MT4, 120 h
[3] = Cytotoxicity against human MT4 cells after 5 days by MTT assay; assay type: cell-based
[4] = Selectivity index, ratio of CC50 for human MT4 cells to EC50 for wild-type HIV1 3B infected in human MT4 cells; assay type: toxicity, cell-based; conditions: read-out: Ratio CC50/EC50
[5] = system: Human immunodeficiency virus 2; assay: Antiviral activity against HIV-2 ROD infected in human MT4 cells assessed as protection against virus-induced cytopathic effect measured at 5 days post infection by MTT assay; assay type: functional, cell-based; conditions: Human immunodeficiency virus 2, ISOLATE ROD, MT4, 120 h
[6] = system: Human immunodeficiency virus 1; assay: Antiviral activity against HIV1 RES056 harboring K103N/Y181C double mutant infected in human MT4 cells assessed as protection against virus-induced cytopathic effect measured at 5 days post infection by MTT assay; assay type: functional, cell-based; conditions: Human immunodeficiency virus 1, RES056, MT4, 120 h
[7] = Solubility of the compound in phosphate buffer at pH 7.4 after 2 hrs by UV-HPLC method; assay type: physicochemical
[8] = n-Octanol/water partition coefficient, log P of the compound after 2 hrs by HPLC method; assay type: physicochemical
[9] = Solubility of the compound in phosphate buffer at pH 2 after 2 hrs by UV-HPLC method; assay type: physicochemical
[10] = system: Human immunodeficiency virus 1; assay: Antiviral activity against HIV1 harboring K103N mutant infected in human MT4 cells assessed as protection against virus-induced cytopathic effect measured at 5 days post infection by MTT assay; assay type: functional, cell-based; conditions: Human immunodeficiency virus 1, MT4, 120 h
[11] = system: Human immunodeficiency virus 1; assay: Antiviral activity against HIV1 harboring Y181C mutant infected in human MT4 cells assessed as protection against virus-induced cytopathic effect measured at 5 days post infection by MTT assay; assay type: functional, cell-based; conditions: Human immunodeficiency virus 1, MT4, 120 h
[12] = system: Human immunodeficiency virus 1; assay: Antiviral activity against HIV1 harboring L100I mutant infected in human MT4 cells assessed as protection against virus-induced cytopathic effect measured at 5 days post infection by MTT assay; assay type: functional, cell-based; conditions: Human immunodeficiency virus 1, MT4, 120 h
[13] = system: Human immunodeficiency virus 1; assay: Antiviral activity against HIV1 harboring F227L/V106A double mutant infected in human MT4 cells assessed as protection against virus-induced cytopathic effect measured at 5 days post infection by MTT assay; assay type: functional, cell-based; conditions: Human immunodeficiency virus 1, MT4, 120 h
[14] = system: Human immunodeficiency virus 1; assay: Fold resistance, ratio of EC50 for HIV1 harboring E138K mutant infected in human MT4 cells to EC50 for wild-type HIV1 3B infected in human MT4 cells; assay type: functional
[15] = system: Human immunodeficiency virus 1; assay: Fold resistance, ratio of EC50 for HIV1 harboring Y181C mutant infected in human MT4 cells to EC50 for wild-type HIV1 3B infected in human MT4 cells; assay type: functional
[16] = Inhibition of wild-type HIV1 reverse transcriptase assessed as decrease in biotin-dUTP incorporation using poly(A)/oligo(dT)15 as template/primer after 1 hr by ELISA; parameters: species or system Human immunodeficiency virus 1
[17] = system: Human immunodeficiency virus 1; assay: Antiviral activity against HIV1 harboring E138K mutant infected in human MT4 cells assessed as protection against virus-induced cytopathic effect measured at 5 days post infection by MTT assay; assay type: functional, cell-based; conditions: Human immunodeficiency virus 1, MT4, 120 h
[18] = system: Human immunodeficiency virus 1; assay: Antiviral activity against HIV1 harboring Y188L mutant infected in human MT4 cells assessed as protection against virus-induced cytopathic effect measured at 5 days post infection by MTT assay; assay type: functional, cell-based; conditions: Human immunodeficiency virus 1, MT4, 120 h
[19] = system: Human immunodeficiency virus 1; assay: Fold resistance, ratio of EC50 for HIV1 harboring K103N mutant infected in human MT4 cells to EC50 for wild-type HIV1 3B infected in human MT4 cells; assay type: functional
[20] = system: Human immunodeficiency virus 1; assay: Fold resistance, ratio of EC50 for HIV1 harboring Y188L mutant infected in human MT4 cells to EC50 for wild-type HIV1 3B infected in human MT4 cells; assay type: functional
[21] = system: Human immunodeficiency virus 1; assay: Fold resistance, ratio of EC50 for HIV1 harboring L100I mutant infected in human MT4 cells to EC50 for wild-type HIV1 3B infected in human MT4 cells; assay type: functional
[22] = Lipophilicity, log P of the compound; assay type: physicochemical; conditions: octanol/water
[23] = Solubility of the compound in 0.1 N HCl at pH 2; assay type: physicochemical
[24] = Solubility of the compound in water at pH 7.4; assay type: physicochemical

| SMILES | EC50 [2] | CC50 at 120 h [3] | selectivity ratio [4] | EC50 [5] | EC50 [6] | also measured |
| --- | --- | --- | --- | --- | --- | --- |
| Cc1cc(C#N)cc(C)c1Oc1nc(Nc2ccc(C#N)cc2)nc2[nH]ccc12 | – | – | – | – | – | EC50 [1]: 0.00053 µM |
| Cc1cc(C)c(Oc2cc(Cl)nc(NCCn3ccc(=O)[nH]c3=O)n2)c(C)c1 | 0.52 µM | 44.1 µM | 85 | > 44.1 µM | > 44.1 µM | – |
| Cc1cc(C)c(Nc2nc(NCCn3ccc(=O)[nH]c3=O)ncc2[N+](=O)[O-])c(C)c1 | 0.083 µM | ≥ 3.33 µM | ≥ 40 | > 3.33 µM | > 3.33 µM | – |
| Cc1cc(C)cc(Oc2cc(NCCn3ccc(=O)[nH]c3=O)nc(Cl)n2)c1 | > 99.5 µM | 99.5 µM | < 1 | > 99.5 µM | – | – |
| Cc1cc(C)c(Oc2ccnc(NCCn3ccc(=O)[nH]c3=O)n2)c(C)c1 | 0.53 µM | 272 µM | 515 | > 272 µM | > 272 µM | – |
| Cc1cc(C#N)cc(C)c1Oc1ccnc(NCCn2ccc(=O)[nH]c2=O)n1 | 6.66 µM | 35.8 µM | 5 | > 35.8 µM | > 35.8 µM | solubility at 2 h [7]: 62.9 µg/mL (≈ 166 µM); logP at 2 h [8]: -0.11; solubility at 2 h [9]: > 100 µg/mL |
| Cc1cc(/C=C/C#N)cc(C)c1Oc1cc(Cl)nc(NCCn2ccc(=O)[nH]c2=O)n1 | 0.12 µM | > 285 µM | > 2270 | > 285 µM | > 285 µM | – |
| Cc1cc(C#N)cc(C)c1Oc1cc(Cl)nc(NCCn2ccc(=O)[nH]c2=O)n1 | 7.73 µM | 20.6 µM | 3 | > 20.6 µM | > 20.6 µM | – |
| Cc1cc(C)c(Oc2cc(N)nc(NCCn3ccc(=O)[nH]c3=O)n2)c(C)c1 | 2.7 µM | 119 µM | 44 | > 119 µM | > 119 µM | – |
| Cc1cc(C)c(Oc2cc(NCCn3ccc(=O)[nH]c3=O)nc(Cl)n2)c(C)c1 | > 42.3 µM | 76.4 µM | ≤ 2 | > 76.4 µM | – | – |
| Cc1cc(C#N)cc(C)c1Oc1nc(NCCn2ccc(=O)[nH]c2=O)ncc1Cl | 0.046 µM | > 11.7 µM | ≥ 255 | > 11.7 µM | > 11.7 µM | – |
| Cc1cc(C#N)cc(C)c1Oc1nc(NCCn2ccc(=O)[nH]c2=O)nc(N)c1Br | 0.034 µM | > 265 µM | > 7680 | > 265 µM | > 265 µM | – |
| Cc1cc(C)cc(Oc2cc(N)nc(NCCn3ccc(=O)[nH]c3=O)n2)c1 | > 45.8 µM | 127 µM | < 1 | > 127 µM | – | – |
| Cc1cc(C)cc(Oc2cc(Cl)nc(NCCn3ccc(=O)[nH]c3=O)n2)c1 | > 56.5 µM | > 56.5 µM | > 1 | > 56.5 µM | – | – |
| Cc1cc(C)c(Nc2nc(NCCn3ccc(=O)[nH]c3=O)ncc2N)c(C)c1 | 14.9 µM | > 199 µM | > 20 | > 299 µM | > 299 µM | – |
| Cc1cc(/C=C/C#N)cc(C)c1Oc1nc(NCCn2ccc(=O)[nH]c2=O)ncc1Cl | 0.0056 µM | > 285 µM | > 50500 | > 285 µM | 23.3 µM | EC50 [10]: 0.086 µM; solubility at 2 h [7]: < 0.1 µg/mL; EC50 [11]: 0.15 µM; EC50 [12]: 0.43 µM; EC50 [13]: ≥ 96.6 µM; Ratio EC50 [14]: 6; Ratio EC50 [15]: 27; IC50 [16]: 1.58 µM; EC50 [17]: 0.034 µM; EC50 [18]: 52 µM; Ratio EC50 [19]: 15; Ratio EC50 [20]: 9277; Ratio EC50 [21]: 77 |
| Cc1cc(/C=C/C#N)cc(C)c1Oc1ccnc(NCCn2ccc(=O)[nH]c2=O)n1 | 0.034 µM | > 309 µM | > 9100 | > 309 µM | > 309 µM | solubility at 2 h [7]: < 1 µg/mL |
| Cc1cc(C=CC#N)cc(C)c1Oc1cc(NCCn2ccc(=O)[nH]c2=O)nc(Cl)n1 | 5.81 µM | 26.2 µM | 5 | > 26.2 µM | – | – |
| Cc1cc(C)c(Oc2nc(NCCn3ccc(=O)[nH]c3=O)ncc2Cl)c(C)c1 | 0.0078 µM | 2.49 µM | 317 | > 2.49 µM | > 2.49 µM | – |
| Cc1cc(C#N)cc(C)c1Oc1cc(N)nc(NCCn2ccc(=O)[nH]c2=O)n1 | 18.9 µM | 204 µM | 11 | > 204 µM | > 204 µM | – |
| Cc1cc(C)c(Oc2nc(Cl)ncc2NCCn2ccc(=O)[nH]c2=O)c(C)c1 | > 2.89 µM | 2.89 µM | < 1 | > 2.89 µM | > 2.89 µM | – |
| Cc1cc(C#N)cc(C)c1Oc1cc(NCCn2ccc(=O)[nH]c2=O)nc(Cl)n1 | 9.38 µM | 27.9 µM | 3 | > 27.9 µM | > 27.9 µM | – |
| Cc1cc(C)cc(Oc2nc(NCCn3ccc(=O)[nH]c3=O)ncc2Cl)c1 | 0.88 µM | > 322 µM | > 367 | > 322 µM | > 322 µM | – |
| Cc1cc(/C=C/C#N)cc(C)c1Oc1cc(N)nc(NCCn2ccc(=O)[nH]c2=O)n1 | 0.17 µM | > 298 µM | > 1740 | > 298 µM | > 298 µM | EC50 [10]: 0.53 µM; solubility at 2 h [7]: 0.43 µg/mL (≈ 1.03 µM); EC50 [11]: 4.82 µM; EC50 [12]: 21.9 µM; logP at 2 h [8]: 1.21; EC50 [13]: > 298 µM; Ratio EC50 [14]: 5; Ratio EC50 [15]: 28; EC50 [17]: 0.83 µM; EC50 [18]: > 298 µM; Ratio EC50 [19]: 3; solubility at 2 h [9]: 91.7 µg/mL (≈ 219 µM); Ratio EC50 [20]: >1753; Ratio EC50 [21]: 129 |
| Cc1cc(C)cc(Oc2ccnc(NCCn3ccc(=O)[nH]c3=O)n2)c1 | 48.8 µM | 74.8 µM | 2 | > 74.8 µM | > 74.8 µM | – |
| CC(C)Nc1cccnc1N1CCN(C(=O)c2cc3cc(NS(C)(=O)=O)ccc3[nH]2)CC1 [DELAVIRDINE MESYLATE] | – | 30.4 µM | – | – | 0.032 µM | EC50 [11]: 2.04 µM; EC50 [12]: 2.1 µM; EC50 [17]: 0.043 µM; EC50 [18]: 0.69 µM |
| O=C1Nc2ccc(Cl)cc2[C@@](C#CC2CC2)(C(F)(F)F)O1 [EFAVIRENZ] | – | > 6.34 µM | – | – | – | EC50 [11]: 0.0068 µM; EC50 [12]: 0.1 µM; EC50 [13]: 0.21 µM; EC50 [18]: 0.34 µM |
| Cc1cc(C#N)cc(C)c1Oc1nc(Nc2ccc(C#N)cc2)nc(N)c1Br [ETRAVIRINE] | – | – | – | – | 0.0034 µM | EC50 [12]: 0.0066 µM; logP [22]: > 5; IC50 [16]: 1 µM; solubility [23]: < 1 µg/mL; solubility [24]: < 1 µg/mL |
| Cc1ccnc2c1NC(=O)c1cccnc1N2C1CC1 [NEVIRAPINE] | – | > 15 µM | – | – | 0.26 µM | EC50 [11]: 6.22 µM; EC50 [12]: 0.83 µM; IC50 [16]: 1.39 µM; EC50 [18]: 9.61 µM |
| Cc1cn([C@H]2C[C@H](N=[N+]=[N-])[C@@H](CO)O2)c(=O)[nH]c1=O [ZIDOVUDINE] | – | > 7.48 µM | > 1050 | – | 0.0071 µM | EC50 [10]: 0.0083 µM; EC50 [11]: 0.0071 µM; EC50 [13]: 0.005 µM; EC50 [17]: 0.013 µM; EC50 [18]: 0.011 µM |
